The text below walks through data of US4874752A, “Benzoquinone derivatives and production thereof” (Takeda Chemical Industries, Ltd., priority 1982, dated 1989).

One may read the inhibition as how much of the control response was suppressed.

The target in one series is T1, 5-lipoxygenase (Rattus norvegicus, UniProt P12527).
T1 construct: endogenous in cells; host or cells: RBL-1
T1 sequence (P12527 1-673): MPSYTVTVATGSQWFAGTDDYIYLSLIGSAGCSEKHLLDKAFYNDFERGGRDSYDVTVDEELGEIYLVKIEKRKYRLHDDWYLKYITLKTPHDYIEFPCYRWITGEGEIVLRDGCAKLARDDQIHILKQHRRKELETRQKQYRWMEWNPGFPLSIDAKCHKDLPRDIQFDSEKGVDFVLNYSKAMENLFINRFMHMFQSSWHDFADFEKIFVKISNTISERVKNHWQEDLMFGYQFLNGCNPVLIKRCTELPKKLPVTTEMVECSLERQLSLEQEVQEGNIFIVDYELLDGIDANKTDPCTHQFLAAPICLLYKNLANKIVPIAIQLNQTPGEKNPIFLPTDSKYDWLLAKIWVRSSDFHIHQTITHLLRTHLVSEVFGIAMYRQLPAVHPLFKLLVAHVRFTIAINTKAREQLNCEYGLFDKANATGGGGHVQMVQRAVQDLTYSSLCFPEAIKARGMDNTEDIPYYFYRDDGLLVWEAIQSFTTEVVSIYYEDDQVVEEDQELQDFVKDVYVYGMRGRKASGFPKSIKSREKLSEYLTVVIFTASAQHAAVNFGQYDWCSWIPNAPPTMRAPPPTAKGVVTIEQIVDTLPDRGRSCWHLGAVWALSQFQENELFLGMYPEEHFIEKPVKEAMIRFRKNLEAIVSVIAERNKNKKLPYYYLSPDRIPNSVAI
As to the kind of experiment: Inhibition of 5-lipoxygenase activity in RBL-1 cells (5-HETE production). The following applies: 37° C., 20 minutes, arachidonic acid + A-23187. It is filed as cell-based. On the procedure: 10^7 RBL-1 cells (rat basophilic leukemia cells) are suspended in 0.5 ml of MCM (mast cell medium), and, then, a test solution (0.5 ml of MCM, 50 μg of arachidonic acid, 10 μg of A-23187 and 1 μM or 10 μM of the quinone compound) is added. The reaction is conducted at 37° C. for 20 minutes. After completion of the reaction, 4 ml of ethanol including 1,4-dimethoxy-2-methyl-3-(3-methoxypropyl)naphthalene are added (0.5 μg/ml) are added as an internal reference. After shaking well, the mixture is allowed to stand at room temperature for 10 minutes. Then, the mixture was centrifuged (2000 r.p.m./min.) for 10 minutes and the supernatant is separated. This supernatant is concentrated under reduced pressure to about 200 μl. To the concentrate is added a high performance liquid chromatography solvent [CH3 CN(1500): CH3 OH(500): water (1100): acetic acid(2); pH 5.6 (adjusted with aqueous ammonia)] to make a total of 1 ml. A 200 μl portion of this solution is taken and 5-HETE (5-hydroxyeicosatetraenoic acid) is assayed by high performance liquid chromatography. The degree of inhibition of 5-HETE production (IE) is expressed in terms of […], where a is the peak height or area after correction with the peak of the internal reference standard in the absence of the quinone compound and b is the peak height or area after correction with the peak of the internal reference standard in the presence of the quinone compound.

The subject of the next series is collagen biosynthesis. Description: Inhibitory activity of collagen biosynthesis (collagen content of the uterus, with 17β-estradiol). Type of series: in vivo, SD strain rats (female, 3 weeks old). The following applies: for Degree of inhibition: uterus collagen. On the procedure:
In accordance with the method of R. A. Salvador et al. [Arch. Biochem. Biophys. 174, 382 (1976)], 0.2 mg/kg of each test compound was intraperitoneally administered to SD strain rats (.female., 3 weeks old) once a day for 6 days. After that, the collagen content of the uterus was determined and compared with that of control experiment.
*Rats were used 3 animals as one group; initial body weights 41 ± 2- 4

Series [1] has as its target T2, protocollagen-proline hydroxylase (Gallus gallus, UniProt P16924).
T2 construct: partially purified enzyme preparation obtained from chick embryos; from tissue; host or cells: chick embryos (partially purified enzyme)
T2 sequence (P16924 1-516): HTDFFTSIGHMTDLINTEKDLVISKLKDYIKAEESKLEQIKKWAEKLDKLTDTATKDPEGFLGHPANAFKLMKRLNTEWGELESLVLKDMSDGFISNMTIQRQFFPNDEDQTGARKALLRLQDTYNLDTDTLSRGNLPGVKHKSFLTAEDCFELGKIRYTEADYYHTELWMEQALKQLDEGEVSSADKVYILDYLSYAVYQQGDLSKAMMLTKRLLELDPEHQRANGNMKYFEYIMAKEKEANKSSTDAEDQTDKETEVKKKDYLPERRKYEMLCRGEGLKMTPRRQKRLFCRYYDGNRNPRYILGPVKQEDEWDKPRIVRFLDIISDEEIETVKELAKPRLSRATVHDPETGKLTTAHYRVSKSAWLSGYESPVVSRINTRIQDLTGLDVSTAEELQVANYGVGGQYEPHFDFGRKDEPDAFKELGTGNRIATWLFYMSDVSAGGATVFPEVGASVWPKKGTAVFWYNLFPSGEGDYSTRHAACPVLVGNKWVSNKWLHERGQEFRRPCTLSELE
T2 sequence (P09102 23-515 partner): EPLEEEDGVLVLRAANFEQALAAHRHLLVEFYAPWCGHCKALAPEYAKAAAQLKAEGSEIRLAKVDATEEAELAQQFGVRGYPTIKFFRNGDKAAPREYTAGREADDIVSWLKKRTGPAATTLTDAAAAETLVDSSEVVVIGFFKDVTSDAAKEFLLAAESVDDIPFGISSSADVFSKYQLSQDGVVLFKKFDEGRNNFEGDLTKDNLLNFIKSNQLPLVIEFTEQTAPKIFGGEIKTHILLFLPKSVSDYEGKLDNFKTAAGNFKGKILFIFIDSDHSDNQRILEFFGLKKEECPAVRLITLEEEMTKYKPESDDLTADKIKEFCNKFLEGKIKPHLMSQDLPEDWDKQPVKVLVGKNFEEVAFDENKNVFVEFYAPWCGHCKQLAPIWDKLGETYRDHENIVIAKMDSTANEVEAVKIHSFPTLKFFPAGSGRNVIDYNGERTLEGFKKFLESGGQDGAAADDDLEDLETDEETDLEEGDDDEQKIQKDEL
As to the kind of experiment: Inhibitory activity of protocollagen-proline hydroxylase. It is filed as biochemical, chick embryos. An excerpt: Determination of this inhibitory activity was made by the method of R. E. Rhoads et al. [Methods in Enzymology XVII B, 306 (1971)] using a partially purified enzyme preparation obtained from chick embryos in accordance with the methods of K. I. Kivirriko et al. and J. Halme et al. [J. Biol, Chem. 242, 4007 (1967) and Biochim. Biophys. Acta 198, 460 (1967)] and, as a substrate, (Pro-Pro-Gly)5.4H2 O[prepared by the Protein Research Foundation, Osaka]. In this procedure, the partially purified enzyme was used in an amount of 100 μg as protein.

[2] abbreviates: 17β-estradiol + compound, 0.2 mg/kg i.p. once a day for 6 days.

SMILES strings stand for the structures.

For the compound `NC1=NN(c2cccc(C(F)(F)F)c2)CC1` [BW755C, reference compound], at 5-lipoxygenase, the inhibition at 1 µM turned out to be 21.8% and the inhibition at 10 µM stood at 39.1%.

Consider `COC1=C(OC)C(=O)C(/C=C/C(=O)O)=C(C)C1=O` [drawing 30], for which, in the series on collagen biosynthesis (setting [2]), the “Collagen content of uterus” value is 2.53 ± 0.28 mg and the Degree of inhibition is 51%.

As for `COC1=C(C)C(=O)C(COc2ccc(CC(=O)O)cc2)=C(C)C1=O`, on 5-lipoxygenase, the inhibition at 1 µM came out at 70.1% and the inhibition at 10 µM came to 81.5%.

`C[C@]12CC[C@@H]3c4ccc(O)cc4CC[C@H]3[C@@H]1CC[C@@H]2O` [17β-estradiol, reference compound]: in the series on collagen biosynthesis (17β-estradiol alone), the “Collagen content of uterus” value was 3.45 ± 0.11 mg. The “Body weight of rats” value in the series with collagen biosynthesis (17β-estradiol alone, 3 rats per group, initial body weight about 41 g) is given as 73 ± 3 g.

`CCCCCC#CCC#CCC#CCC#CCCCC(=O)O` [ETYA, Eicosatetraynoic acid, reference compound]: on 5-lipoxygenase, the inhibition at 1 µM was 35.9% and the inhibition at 10 µM was found to be 39.4%.

Take `COC1=C(OC)C(=O)C(/C=C/C(C)=O)=C(C)C1=O` [drawing 31]: in the series with collagen biosynthesis (setting [2]), the “Collagen content of uterus” value is reported as 2.98 ± 0.15 mg and the Degree of inhibition turned out to be 26%.

In series [1], `COC1=C(OC)C(=O)C(COc2ccc(C(C)C(=O)O)cc2)=C(C)C1=O` (centres unmarked) gave an inhibition at 2.5 µM of 70%, an inhibition at 5 µM of 75%, an inhibition at 20 µM of 100% and an inhibition at 50 µM of 100%. Moreover, in series [1] (10 μM), the “Inhibition of protocollagen-proline hydroxylase” value came out at 92% and the inhibition at 10 µM is 100%.

For the compound `CC1=C(C)C(=O)C(c2nc3cc(C(C)C(=O)O)ccc3o2)=C(C)C1=O` (centres unmarked), at 5-lipoxygenase, the inhibition at 1 µM was 63.5% and the inhibition at 10 µM came out at 79.2%.

Turning to `COC1=C(OC)C(=O)C(CC=C(C)COc2ccc(CC(=O)O)cc2)=C(C)C1=O` [drawing 38], at 5-lipoxygenase, the inhibition at 1 µM stood at 72.2% and the inhibition at 10 µM was determined as 83.3%.

Turning to `COC1=C(OC)C(=O)C(COc2ccc(/C=C/C(=O)O)cc2)=C(C)C1=O` [drawing 37], on 5-lipoxygenase, the inhibition at 1 µM came out at 73.9% and the inhibition at 10 µM worked out at 83.5%.

As for `COC1=C(OC)C(=O)C(CCCCCCCCCC(=O)NC(CCC(=O)O)C(=O)O)=C(C)C1=O` (centres unmarked) [m:0, n:9, Z:COGlu], the inhibition at 20 µM in series [1] is 37%.

As for `COC1=C(OC)C(=O)C(CCCCCCCCCC(=O)N[C@@H](CCCNC(=N)N)C(=O)O)=C(C)C1=O` [n: 9, Z:CONHArg, 10-(2,3-dimethoxy-5-methyl-1,4-benzoquinon-6-yl)decanoyl-L-arginine], in the series on collagen biosynthesis (setting [2]), the “Collagen content of uterus” value was found to be 2.86 ± 0.75 mg and the Degree of inhibition was determined as 33%.

Take `COC1=C(OC)C(=O)C(CCCCOc2ccc(/C=C/C(=O)O)cc2)=C(C)C1=O`: at 5-lipoxygenase, the inhibition at 1 µM worked out at 72% and the inhibition at 10 µM was 83.1%.

With `COC1=C(OC)C(=O)C(COc2ccc(/C=C/C(=O)O)cc2)=C(C)C1=O` [drawing 32], in the series on collagen biosynthesis (setting [2]), the “Collagen content of uterus” value is recorded as 2.77 ± 0.25 mg and the Degree of inhibition stood at 38%.

Consider `COC1=C(OC)C(=O)C(CC=C(C)COc2ccc(/C=C/C(=O)O)cc2)=C(C)C1=O`, for which, at 5-lipoxygenase, the inhibition at 1 µM stood at 76.6% and the inhibition at 10 µM turned out to be 85.8%.

In series [1], `COC1=C(OC)C(=O)C(CCOc2ccc(/C=C/C(=O)O)cc2)=C(C)C1=O` yielded an inhibition at 2.5 µM of 62%, an inhibition at 5 µM of 72%, an inhibition at 20 µM of 100% and an inhibition at 50 µM of 100%. In addition, in series [1] (10 μM), testing at 10 µM gave an inhibition of 99.9%.

In turn, `COC1=C(OC)C(=O)C(CCCCCCCCCC(=O)N[C@H](Cc2ccccc2)C(=O)O)=C(C)C1=O` [m:0, n:9, Z:COPhe, 10-(2,3-dimethoxy-5-methyl-1,4-benzoquinon-6-yl)decanoyl-D-phenylalanine] registered an inhibition at 20 µM in series [1] of 35%.

Take `COC1=C(OC)C(=O)C(c2nc3cc(C(C)C(=O)O)ccc3o2)=C(C)C1=O` (centres unmarked): at 10 µM the inhibition in series [1] (10 μM) was 54%. For the same compound, in series [1], the inhibition at 20 µM was determined as 76% and the inhibition at 50 µM was found to be 84%.

Take `COC1=C(OC)C(=O)C(CC=C(C)COc2ccc(CC(=O)O)cc2)=C(C)C1=O` [drawing 20]: 10 µM produced 34% inhibition in series [1] (10 μM). In series [1], at 20 µM the inhibition was 48% and the inhibition at 50 µM was 92%.

As to `COC1=C(OC)C(=O)C(CCC(=O)N2CCC[C@H]2C(=O)O)=C(C)C1=O` [m:0, n:2, Z:COPro, 3-(2,3-dimethoxy-5-methyl-1,4-benzoquinon-6-yl)propionyl-L-proline], testing at 20 µM in series [1] gave an inhibition of 35%.

For `COC1=C(OC)C(=O)C(/C=C/C(C)=O)=C(C)C1=O` [drawing 26], in series [1], the inhibition at 2.5 µM was found to be 51%, the inhibition at 5 µM was determined as 72%, the inhibition at 20 µM came to 92% and the inhibition at 50 µM is 92%. This compound showed an inhibition at 10 µM in series [1] (10 μM) of 85%.

In the case of `COC1=C(OC)C(=O)C(CCCCCCCCCC(=O)OC[C@H]2OC(O)[C@H](NC(C)=O)[C@@H](O[C@H](C)C(=O)O)[C@@H]2O)=C(C)C1=O` (some centres unmarked) [m:0, n:9, Z:COMurNAc, N-acetyl-6O-[10-(2,3-dimethoxy-5-methyl-1,4-benzoquinon-6-yl)decanoyl]muraminic acid], the inhibition at 20 µM in series [1] amounted to 32%.

The compound `COC1=C(OC)C(=O)C(CCC(=O)NCC(=O)O)=C(C)C1=O` [m:0, n:2, Z:COGly, 3-(2,3-dimethoxy-5-methyl-1,4-benzoquinone-6-yl)propionyl-glycine] returned an inhibition at 20 µM in series [1] of 46%.
